Earlier results, collected in patent publication US8114906B2, “Essential fatty acids in the treatment and/or inhibition of depression in patients with coronary heart or artery disease” (Abbott Products GmbH, priority 2004, dated 2012).

Assays:
[1] = system: treatment resistant depression; details: EPA added to treatment
[2] = system: depression in post-myocardial patients; details: one study

SMILES	symptoms of treatment resistant depression [1]	effects in post-myocardial patients with concomitant depression [2]
CC/C=C\C/C=C\C/C=C\C/C=C\C/C=C\CCCC(=O)OCC [EPA, eicosapentanoic acid ethyl ester]	symptoms remission	–
CN[C@H]1CC[C@@H](c2ccc(Cl)c(Cl)c2)c2ccccc21 [sertraline]	–	beneficial effects
